# System: PBMC from HLA-DQ2+ coeliac subjects
# Test: Interferon gamma ELISPOT, secalin 20mer first round library after rye challenge
# Format: cell-based, human
# Conditions: 20mers pre-treated with tTG; day 6 PBMC; 14 subjects
# Description: (§1) Peptides were initially dissolved in aqueous acetonitrile (50%). Peptides in aqueous acetonitrile were transferred to sterile 96-well plates and diluted in sterile PBS with 1 mM calcium (250 mcg/ml) and then incubated with tTG (25 mcg/ml) (Sigma T5398) for 6 h 37° C. and then stored frozen (−20° C.) until use.
# (§2) IFNγ ELISpot assays (Mabtech, Sweden) were performed in 96-well plates (MAIP S-45, Millipore) in which each well contained 25 mcl of peptide solution and 100 mcl of PBMC (2-8×10^5/well) in RPMI containing 10% heat inactivated human AB serum. After development and drying, IFNγ ELISpot plates were assessed using the MAIP automated ELISpot plate counter. Data was then analysed according to a novel algorithm (Expectation Maximization: EM) to define and quantify interferon-gamma responses to 9mer sequences contained within the peptide library (see FIG. 3 and below). 9mer peptides were then rationalised according to an algorithm that assumes redundancy in T-cell recognition, the “IterativeCluster” algorithm (see FIG. 4 and below), by allowing groups of amino acids with similar chemical properties at any one position in the 9mer, or for glutamate to replace glutamine at any position (assuming deamidation may have occurred).
# Secalin and hordein 20mer first round peptide libraries were assessed 3 days after completing rye (bread, 100 g/d for 3 days) or barley (boiled, 100 g/d for 3 days) challenge (“day 6” PBMC interferon gamma ELISPOT responses). Although iterative analysis using 2nd and 3rd round peptide libraries to define epitopes has not yet been performed, the 20mers pre-treated with tTG found to induce “potent” responses shared substantial structural similarity to the bioactive peptides identified after wheat challenge. […] The dominant (>70% maximal response) 20mer after rye challenge was usually […] (SEQ ID NO: 1769) (8/14 subjects), or occasionally […] (SEQ ID NO: 1770) (4/14), […] (SEQ ID NO: 1771) (1/14), […] (SEQ ID NO: 1772) (1/14) and/or […] (SEQ ID NO: 1773) (1/14). Additional peptides noted for greater than 40% maximal response in at least 1 subject include: […]
row,Sequence,subjects in whom 20mer was dominant (>70% maximal response) after rye challenge
1,PQTQQPQQPFPQPQQPQQLF (Description of Artificial Sequence: Synthetic gluten peptide) [rye secalin 20mer],1/14
2,QQPQQLFPQTQQSSPQQPQQ (Description of Artificial Sequence: Synthetic gluten peptide) [rye secalin 20mer],1/14
3,QPFPQPQQPTPIQPQQPFPQ (Description of Artificial Sequence: Synthetic gluten peptide) [rye secalin 20mer],4/14

# Same assay, conditions: after rye challenge; 14 subjects
Sequence,number of subjects with > 70% maximal response,subjects with greater than 40% maximal response
VGPSGQVSWPQQQPLPQPQQ (Description of Artificial Sequence: Synthetic gluten peptide) [rye secalin 20mer],2,2/14
QQPSIQLSLQQQLNPCKNVL (Description of Artificial Sequence: Synthetic gluten peptide) [rye secalin 20mer],1,1/14
SPQQPQLPFPQPQQPFVVVV (Description of Artificial Sequence: Synthetic gluten peptide) [rye secalin 20mer],1,4/14
QQPQQPFPLQPQQPVPQQPQ (Description of Artificial Sequence: Synthetic gluten peptide) [rye secalin 20mer],1,3/14
FPLQPQQPFPQQPEQIISQQ (Description of Artificial Sequence: Synthetic gluten peptide) [rye secalin 20mer],1,5/14
FPQQPQQPFPQPQQQLPLQP (Description of Artificial Sequence: Synthetic gluten peptide) [rye secalin 20mer],2,3/14

# System: PBMC from HLA-DQ2+ coeliac subjects
# Test: Interferon gamma ELISPOT, hordein 20mer first round library after barley challenge
# Format: cell-based, human
# Parameters: key to individual peptide showing maximal response in a single individual (asterisk): *: an asterisk indicates the eight individual peptides showing maximal response in a single individual
# Conditions: not given
# Description: as §1, §2
# Secalin and hordein 20mer first round peptide libraries were assessed 3 days after completing rye (bread, 100 g/d for 3 days) or barley (boiled, 100 g/d for 3 days) challenge (“day 6” PBMC interferon gamma ELISPOT responses). Although iterative analysis using 2nd and 3rd round peptide libraries to define epitopes has not yet been performed, the 20mers pre-treated with tTG found to induce “potent” responses shared substantial structural similarity to the bioactive peptides identified after wheat challenge. […] The dominant (>70% maximal response) 20mer after rye challenge was usually […] (SEQ ID NO: 1769) (8/14 subjects), or occasionally […] (SEQ ID NO: 1770) (4/14), […] (SEQ ID NO: 1771) (1/14), […] (SEQ ID NO: 1772) (1/14) and/or […] (SEQ ID NO: 1773) (1/14). Additional peptides noted for greater than 40% maximal response in at least 1 subject include:
# Typically, the dominant peptides after barley challenge included one of six peptide motifs, or were one of eight other individual 20mers “dominant” in only one of 17 subjects after barley challenge. The six motifs identified:
# The barley hordein peptides showing at least 40% maximal peptide response in at least one subject include the following, wherein an asterisk indicates the eight individual peptides showing maximal response in a single individual: […]
row,Sequence,individual peptide showing maximal response in a single individual (asterisk)
1,PQQPQQPFPQPQQPFSWQPQ (Description of Artificial Sequence: Synthetic gluten peptide) [barley hordein 20mer],*
2,QGSEQIIPQQPQQPFPLQPH (Description of Artificial Sequence: Synthetic gluten peptide) [barley hordein 20mer],*

# Same assay, conditions: 17 subjects
Sequence,number of subjects with > 70% maximal response,subjects with at least 40% maximal peptide response
QIPYVHPSILQQLNPCKVFL (Description of Artificial Sequence: Synthetic gluten peptide) [barley hordein 20mer],1,1/17
PQQPQQPFPQPQQPFSWQPQ (Description of Artificial Sequence: Synthetic gluten peptide) [barley hordein 20mer],2,6/17
QPFPQPQQPFPWQPQQPFPQ (Description of Artificial Sequence: Synthetic gluten peptide) [barley hordein 20mer],2,10/17
PVLSQQQPCTQDQTPLLQEQ (Description of Artificial Sequence: Synthetic gluten peptide) [barley hordein 20mer],1,1/17
PQQPVPQQPQPYPQQPQPFP (Description of Artificial Sequence: Synthetic gluten peptide) [barley hordein 20mer],1,5/17
PQGSEQIIPQQPFPLQPQPF (Description of Artificial Sequence: Synthetic gluten peptide) [barley hordein 20mer],1,2/17
FQQPQQSYPVQPQQPFPQPQ (Description of Artificial Sequence: Synthetic gluten peptide) [barley hordein 20mer],1,3/17
QQPFPQPQQPIPYQPQQPFN (Description of Artificial Sequence: Synthetic gluten peptide) [barley hordein 20mer],1,5/17
QQPFPLQPQQPFPQPQPFPQ (Description of Artificial Sequence: Synthetic gluten peptide) [barley hordein 20mer],0,1/17
PQPFPQQPIPQQPQPYPQQP (Description of Artificial Sequence: Synthetic gluten peptide) [barley hordein 20mer],2,6/17
PFPQPQQPFSWQPQQPFLQP (Description of Artificial Sequence: Synthetic gluten peptide) [barley hordein 20mer],0,1/17
PFPQPPQQKYPEQPQQPFPW (Description of Artificial Sequence: Synthetic gluten peptide) [barley hordein 20mer],1,1/17
LAAQLPAMCRLEGGGGLLAS (Description of Artificial Sequence: Synthetic gluten peptide) [barley hordein 20mer],1,1/17
QPFPTPQQFFPYLPQQTFPP (Description of Artificial Sequence: Synthetic gluten peptide) [barley hordein 20mer],1,4/17
QSQQQFPQPQQPFPQQPQQP (Description of Artificial Sequence: Synthetic gluten peptide) [barley hordein 20mer],0,1/17
PQQASPLQPQPQQASPLQPQ (Description of Artificial Sequence: Synthetic gluten peptide) [barley hordein 20mer],1,1/17
FPQPQEPFPQQPQQPFPLQP (Description of Artificial Sequence: Synthetic gluten peptide) [barley hordein 20mer],0,1/17
QPQPYPQQPQPYPQQPFQPQ (Description of Artificial Sequence: Synthetic gluten peptide) [barley hordein 20mer],2,7/17
QGSEQIIPQQPQQPFPLQPH (Description of Artificial Sequence: Synthetic gluten peptide) [barley hordein 20mer],3,7/17

# From patent US10105437B2, “Epitopes related to coeliac disease” (BTG International Limited, priority 2004, dated 2018)
